Assay results published in ChEMBL document CHEMBL3217468 (Medchemcomm, 2012).
≈ marks a conversion by molar mass, not a printed value.

Key:
Pseudomonas aeruginosa [1] = test: Antibacterial activity against Pseudomonas aeruginosa harboring mutant SPase by CLSI broth microdilution method; assay type: functional
Staphylococcus aureus [2] = test: Antibacterial activity against wild type Staphylococcus aureus by CLSI broth microdilution method; assay type: functional
Staphylococcus aureus [3] = test: Antibacterial activity against Staphylococcus aureus harboring mutant SPase by CLSI broth microdilution method; assay type: functional
Streptococcus agalactiae = test: Antibacterial activity against wild type Streptococcus agalactiae by CLSI broth microdilution method; assay type: functional
Escherichia coli [4] = test: Antibacterial activity against Escherichia coli harboring mutant SPase by CLSI broth microdilution method; assay type: functional
Escherichia coli [5] = test: Antibacterial activity against wild type Escherichia coli by CLSI broth microdilution method; assay type: functional
Pseudomonas aeruginosa [6] = test: Antibacterial activity against wild type Pseudomonas aeruginosa by CLSI broth microdilution method; assay type: functional
Streptococcus pneumoniae [7] = test: Antibacterial activity against wild type Streptococcus pneumoniae by CLSI broth microdilution method; assay type: functional
[8] = tested on: Staphylococcus epidermidis; test: Antibacterial activity against Staphylococcus epidermidis harboring mutant SPase by CLSI broth microdilution method; assay type: functional
[9] = tested on: Staphylococcus epidermidis; test: Antibacterial activity against wild type Staphylococcus epidermidis by CLSI broth microdilution method; assay type: functional
[10] = tested on: Staphylococcus epidermidis; test: Antibacterial activity against Staphylococcus epidermidis assessed as growth inhibition; assay type: functional
Lactococcus lactis = test: Antibacterial activity against Lactococcus lactis harboring SPase with leucine residue at position 29 by modified CLSI microbroth dilution method; assay type: functional
[11] = Binding affinity to Escherichia coli delta 2 to 75 truncated type 1 signal peptidase by fluorescence analysis
Streptococcus pyogenes = test: Antibacterial activity against Streptococcus pyogenes harboring SPase with alanine residue at position 29 by modified CLSI microbroth dilution method; assay type: functional
Pseudomonas aeruginosa [12] = test: Antibacterial activity against Pseudomonas aeruginosa harboring SPase P84S mutant gene by modified CLSI microbroth dilution method; assay type: functional
Rhodococcus opacus = test: Antibacterial activity against Rhodococcus opacus harboring SPase with valine residue at position 29 by modified CLSI microbroth dilution method; assay type: functional
[13] = tested on: Corynebacterium glutamicum; test: Antibacterial activity against Corynebacterium glutamicum harboring SPase with methionine residue at position 29 by modified CLSI microbroth dilution method; assay type: functional
Escherichia coli [14] = test: Antibacterial activity against Escherichia coli harboring wild type SPase by modified CLSI microbroth dilution method; assay type: functional
Pseudomonas aeruginosa [15] = test: Antibacterial activity against Pseudomonas aeruginosa harboring wild type SPase by modified CLSI microbroth dilution method; assay type: functional
[16] = tested on: Staphylococcus epidermidis; test: Antibacterial activity against Staphylococcus epidermidis harboring SPase S29P mutant gene by modified CLSI microbroth dilution method; assay type: functional
Prescottella equi = test: Antibacterial activity against Rhodococcus equi harboring SPase with valine or isoleucine residue at position 29 by modified CLSI microbroth dilution method; assay type: functional; conditions: Rhodococcus (subgen. Prescottella) equi
Staphylococcus aureus [17] = test: Antibacterial activity against Staphylococcus aureus harboring SPase P29S mutant gene by modified CLSI microbroth dilution method; assay type: functional
Staphylococcus aureus [18] = test: Antibacterial activity against Staphylococcus aureus harboring wild type SPase by modified CLSI microbroth dilution method; assay type: functional
Chlamydia trachomatis = test: Antibacterial activity against Chlamydia trachomatis harboring SPase with leucine residue at position 29 by modified CLSI microbroth dilution method; assay type: functional
[19] = tested on: Staphylococcus haemolyticus; test: Antibacterial activity against Staphylococcus haemolyticus harboring SPase with serine residue at position 29 by modified CLSI microbroth dilution method; assay type: functional
[20] = tested on: Staphylococcus epidermidis; test: Antibacterial activity against Staphylococcus epidermidis harboring SPase with serine residue at position 29 by modified CLSI microbroth dilution method; assay type: functional
Helicobacter pylori = test: Antibacterial activity against Helicobacter pylori harboring SPase with alanine residue at position 29 by modified CLSI microbroth dilution method; assay type: functional
Streptococcus pneumoniae [21] = test: Antibacterial activity against Streptococcus pneumoniae harboring SPase with aspargine residue at position 29 by modified CLSI microbroth dilution method; assay type: functional
[22] = tested on: Staphylococcus epidermidis; test: Antibacterial activity against Staphylococcus epidermidis harboring wild type SPase by modified CLSI microbroth dilution method; assay type: functional
Escherichia coli [23] = test: Antibacterial activity against Escherichia coli harboring SPase P84S mutant gene by modified CLSI microbroth dilution method; assay type: functional

| SMILES | MIC (Pseudomonas aeruginosa [1]) [µg/mL] | MIC (Staphylococcus aureus [2]) [µg/mL] | MIC (Staphylococcus aureus [3]) [µg/mL] | MIC (Streptococcus agalactiae) [µg/mL] | MIC (Escherichia coli [4]) [µg/mL] | MIC (Escherichia coli [5]) [µg/mL] | MIC (Pseudomonas aeruginosa [6]) [µg/mL] | MIC (Streptococcus pneumoniae [7]) [µg/mL] | MIC [8] [µg/mL] | MIC [9] [µg/mL] | MIC [10] [µg/mL] | other results |
| --- | --- | --- | --- | --- | --- | --- | --- | --- | --- | --- | --- | --- |
| CCCCCCCCCCCCCCCC(=O)N(C)[C@H](CO)C(=O)N[C@H](C)C(=O)NCC(=O)N(C)[C@@H]1C(=O)N[C@@H](C)C(=O)N[C@H](C(=O)O)Cc2cc(c(O)c([N+](=O)[O-])c2)-c2cc1ccc2O | 8 (≈ 8.64 µM) | > 64 | 4 (≈ 4.32 µM) | 8 (≈ 8.64 µM) | 2 (≈ 2.16 µM) | > 64 | > 64 | 16 (≈ 17.3 µM) | 8 (≈ 8.64 µM) | 0.25 (≈ 0.27 µM) |  |  |
| CCCCCCCCCCCCCCCC(=O)N(C)[C@H](CO)C(=O)N[C@H](C)C(=O)NCC(=O)N(C)[C@@H]1C(=O)N[C@@H](C)C(=O)N[C@H](C(=O)O)Cc2ccc(O)c(c2)-c2cc1ccc2O[C@@H]1O[C@@H](C)[C@H](O)[C@@H](O)[C@H]1O | 16 (≈ 15.6 µM) | > 64 | 4 (≈ 3.89 µM) | > 64 | 2 (≈ 1.95 µM) | > 64 | > 64 | 8 (≈ 7.79 µM) | 8 (≈ 7.79 µM) | 0.25 (≈ 0.243 µM) |  |  |
| CC(C)CCCCCCCCC(=O)N(C)[C@H](CO)C(=O)N[C@H](C)C(=O)NCC(=O)N(C)[C@@H]1C(=O)N[C@@H](C)C(=O)N[C@H](C(=O)O)Cc2ccc(O)c(c2)-c2cc1ccc2O [ARYLOMYCIN A2] |  |  |  |  |  |  |  |  |  |  | 0.5 (≈ 0.606 µM) |  |
| CCCCCCCCCCCCCCCC(=O)N(C)[C@H](CO)C(=O)N[C@H](C)C(=O)NCC(=O)N(C)[C@@H]1C(=O)N[C@@H](C)C(=O)N[C@H](C(=O)O)Cc2ccc(O)c(c2)-c2cc1ccc2O [ARYLOMYCIN C16] | 8 (≈ 9.08 µM) | > 64 | 4 (≈ 4.54 µM) | > 64 | 2 (≈ 2.27 µM) | > 64 | > 64 | 8 (≈ 9.08 µM) | 8 (≈ 9.08 µM) | 0.25 (≈ 0.284 µM) | 0.5 (≈ 0.567 µM) | MIC (Lactococcus lactis): > 128 µg/mL; Kd [11]: 979 nM; MIC (Streptococcus pyogenes): 16 µg/mL (≈ 18.2 µM); MIC (Pseudomonas aeruginosa [12]): 8 µg/mL (≈ 9.08 µM); MIC (Rhodococcus opacus): 2 µg/mL (≈ 2.27 µM); MIC [13]: 2 µg/mL (≈ 2.27 µM); MIC (Escherichia coli [14]): > 128 µg/mL; MIC (Pseudomonas aeruginosa [15]): > 128 µg/mL; MIC [16]: 8 µg/mL (≈ 9.08 µM); MIC (Prescottella equi): 16 µg/mL (≈ 18.2 µM); MIC (Staphylococcus aureus [17]): 2 µg/mL (≈ 2.27 µM); MIC (Staphylococcus aureus [18]): > 128 µg/mL; MIC (Chlamydia trachomatis): 6 µg/mL (≈ 6.81 µM); MIC [19]: 2 µg/mL (≈ 2.27 µM); MIC [20]: 0.25 µg/mL (≈ 0.284 µM); MIC (Helicobacter pylori): 4 µg/mL (≈ 4.54 µM); MIC (Streptococcus pneumoniae [21]): 16 µg/mL (≈ 18.2 µM); MIC [22]: 0.25 µg/mL (≈ 0.284 µM); MIC (Escherichia coli [23]): 4 µg/mL (≈ 4.54 µM) |
